Reference: patent EP1501797B1, “3-(SUBSTITUTED AMINO)-1H-INDOLE-2-CARBOXYLIC ACID ESTER AND 3-(SUBSTITUTED AMINO)-BENZO[B]THIOPHENE-2-CARBOXYLIC ACID ESTER DERIVATIVES AS INTERLEUKIN-4 GENE EXPRESSION INHIBITORS” (Aventis Pharmaceuticals Inc., priority 2002, dated 2003)
Where a name gives a salt, the structure may show the parent alone. Starred links: 1 amine or outer side, 2 acyl side, 3 side chain; linkers in the order of their positions; H or OH if unused. Positions of bridges follow the written chain, without caps; N, C: chain ends. Non-standard residues stand in square brackets, D forms with d. Residues, ends and D or L forms follow the SMILES beside them. Chains are numbered I, II in the order given. Actinocin(9to1) = Cc1c2oc3c(C)ccc(C(=O)[*:1])c3nc-2c(C(=O)[*:2])c(N)c1=O; NMeV = CN[C@H](C(=O)O)C(C)C; Sar = CNCC(=O)O

Assays:
IFN-γ = assay: Human primary Th2 cells, anti-CD3/anti-CD28 activated, IFN-γ ELISA; format: cell-based; settings: human primary Th2 cells, anti-CD3 and anti-CD28 (Table 5)
Protocol: (§1) Briefly, CD4^+CD45RA^+ T cells, isolated from donor peripheral blood mononuclear cells of healthy donors, are educated in the presence of anti-CD3/CD28 antibodies and various growth factors to obtain either a Thl-like or Th2-like phenotypes as determined by the known cytokine profiles of these two cell types.
(§2) Peripheral blood mononuclear cells (PBMC) are prepared from human blood by Ficoll-Hypacque (Pharmacia). The cells are washed two times in Hanks balanced salt solution (HBSS) and counted.
(§3) Naive T cells (CD4^+/CD45RA ) are prepared by negative selection method using following antibodies and Dynabeads: anti-CD8, anti-HLA-DR, (where HLA means human leucocyte antigen) anti-CD14, anti-CD16, anti-CD19, anti-CD45RO antibodies (all from R&D Systems, 1-2 µg/ml) are added to the cells, and the cells are kept on ice for 30 min. The cells are washed two times in HBSS, and goat anti- mouse Ig-beads, (bead:target ratio, 5:1) are added. The cells and beads are slowly rotated at 4°C for 20 min. (following the protocol supplied from Dynal). The supernatant is removed and fresh goat anti-mouse Ig-beads are added to the supernatant, which is slowly rotated at 4°C for 20 min. The cells are counted and phenotypically characterized by flow cytometric analysis.
(§4) CD4^+/CD45RA^+ cells at a density of 10^6/ml in RPMI, is prepared and added to RPMI medium containing 10% Hyclone serum/ glutamine and 1-2 µg/ml anti-CD28 Ab. The cells are split in two aliquots. For Th1 cells: anti-IL-4 Ab (1-2 µg/ml), IFN-γ (1 µg/ml, or 5000 units/ml) are added to the wells. For Th2 cells: IL-4 (100-200 ng/ml), anti-IFN-γ neutralizing Ab (1-2 µg/ml), anti-IL-12 neutralizing Ab (1-2 µg/ml) are added into the wells. […] The cells are transferred to fresh wells and grown in 200 units/ml IL-2 for 2 weeks by feeding them every other day with IL-2 containing medium and splitting the cultures 1:2 or 1:3 as needed. The degree of polarization is determined by intracellular staining of cells with anti-IFN-γ and anti-IL-4 antibodies from Pharmingen, and using flow cytometry from Becton Dickinson (BD), according to manufacturers description. The cells are stimulated with PHA and alloantigens at day 14 and 28 as described below. Eight days after the second allostimulation the cells can be used for compound screening or frozen for future use. For compound testing, large quantities of Th1 and Th2 cells derived from a given donor (NYTh1 and NYTh2) were expanded and frozen as aliquots in liquid nitrogen. The cells are thawed and cultured as and when needed. The thawed cells are stimulated with alloantigen/PHA combination. The cells are used for compound screening after 8-10 days in culture.
(§5) Re-stimulation by allogeneic cells: Human PBMCs, to be used as alloantigens, are isolated from freshly drawn blood by Ficoll separation. […] Cells are counted and diluted to a final concentration of 2 x 10^6/ml in medium containing 10 µg/ml PHA and 200 units/ml IL-2.
(§6) Ninetysix well Falcon tissue culture plates (Fisher Scientific) are coated with 100 microliters per well of 10 µg/ml anti-CD3 (PharMingen) antibody in phosphate buffered saline (PBS) and stored at 4°C one day before the experiment.
(§7) On the day of assay, anti-CD3 antibody coated plates are washed with PBS once to remove all soluble anti-CD3 antibody. […] All compounds and controls are assayed in triplicates.

IL-13 = assay: Human primary Th2 cells, anti-CD3/anti-CD28 activated, IL-13 ELISA; format: cell-based; settings: human primary Th2 cells, anti-CD3 and anti-CD28 (Table 5)
Protocol: as §1, §2, §3, §4, §5, §6, §7

IL-4 [1] = assay: In vivo ovalbumin (OVA) mouse model, BALF IL-4; design: species or system mice
Protocol: This model is designed to determine the ability of a test article to modulate an antigen-induced pulmonary inflammatory cell accumulation in sensitized Balb/c mice from Charles River Laboratories. The mice are given a two week time period from arrival date prior to sensitizations.
On days 0, 7, 14, each animal is injected intraperitoneal (i.p.) with a 0.2 ml Ovalbumin Hydragel solution. Each animal receives 10 µg of Ovalbumin in 0.2 mL of Hydragel, aluminum hydroxide adsorptive gel containing 2% aluminum oxide. […] On day 22, BALF samples are collected from one group of animals and used for cytokine analysis. On day 24, BALF is obtained from a second group of animals and used for differential cell counts.
Test System: Female Babl/cJ mice (Jackson Laboratories), approximately 6-9 weeks old, each weighing approximately 20 to 25 grams, are divided into ten animals per group.
Sensitization Regimen: Mice are sensitized by an intraperitoneal injection of 10 µg ovalbumin (OVA) mixed in 4 mg aluminum hydroxide Al(OH)3 gel suspension in 0.2 ml sterile saline on Days 0, 7 and 14. This suspension is prepared one hour before intraperitoneal injection into each mouse. The animals are ready for OVA challenge on Day 21.
Antigen Challenge: Animals are exposed to aerosolized OVA on day 21 (5% w/v in sterile saline) for 20 minutes. The aerosol is generated by a PARI-Master nebulizer, the outlet of which is connected to a small Plexiglas® chamber containing the animals. Bronchoalveolar lavage is performed on Day 22.
Method of Study Performance: On day 24, 72 hours following aerosol OVA exposure, a separate group of animals are anesthetized with urethane (0.15 - 0.2 gm/kg) and the trachea is exposed and cannulated. Lungs are lavaged with 2 x 0.5 ml Hank's balanced salt solution without Ca^2+ and Mg^2+ (HBSS; Gibco, Grand Island, NY) containing 0.1% EDTA. Lavage fluid is recovered after 30 sec by gentle aspiration and pooled for each animal. Samples are centrifuged at 2000 rpm for 15 minutes at 5°C. After centrifugation, individual supernatants are stored frozen at -80°C. The resulting pellet is resuspended in 0.5 ml of HBSS containing 0.1% EDTA. Total cells and eosinophils are determined using a Technicon Hl and cytoslides, respectively.
Administration of the Test/Control Article: The test article and vehicle dosing preparations are administered once to each anesthetized mouse intranasally using a 200 µl pipette at 30-60 minutes prior to OVA challenge. Each animal receives 50 µl (25 µl/nostril) at each time point. Method of Euthanasia: Urethane overdose at in-life completion.
Compounds administered 30 minutes before aerosol ovalbumin challenge in ova sensitized mice. BALF harvested 24 hours after aerosol challenge. N = 6/group.
Mice (12 animals per group) are sensitized with 0.2 ml of an AlOH3 hydrogel suspension (2% AlOH3) containing 50 µg/ml ovalbumin on days 0, 7 and 14. […] The glucocorticosteroid budesonide (10 mg/kg) is included as a control. All compounds are given in 0.5% methylcellulose/0.2% Tween 80, intranasally (50µl). After the OVA challenge for 24 hours, the mice underwent bronchoalveolar lavage and IL-4 and IL-13 levels in the BALF are determined by ELISA. Another group of mice underwent bronchoalveolar lavage (72 hours after treatment) to determine the number of the eosinophils (*p<0.05, **p<0.01).
Compounds are given (30 mg/kg), intranasally, once, 30 min before OVA challenge unless noted otherwise. BAL fluids are collected 24 hours after OVA challenge and the cytokine levels are measured by standard ELISAs.

eosinophils = assay: In vivo ovalbumin (OVA) mouse model, BALF eosinophils; design: species or system mice; settings: i.n.
Protocol: On days 0, 7, 14, each animal is injected intraperitoneal (i.p.) with a 0.2 ml Ovalbumin Hydragel solution. Each animal receives 10 µg of Ovalbumin in 0.2 mL of Hydragel, aluminum hydroxide adsorptive gel containing 2% aluminum oxide. […] On day 24, BALF is obtained from a second group of animals and used for differential cell counts. […]
Sensitization Regimen: Mice are sensitized by an intraperitoneal injection of 10 µg ovalbumin (OVA) mixed in 4 mg aluminum hydroxide Al(OH)3 gel suspension in 0.2 ml sterile saline on Days 0, 7 and 14. […] The animals are ready for OVA challenge on Day 21. […]
Method of Study Performance: On day 24, 72 hours following aerosol OVA exposure, a separate group of animals are anesthetized with urethane (0.15 - 0.2 gm/kg) and the trachea is exposed and cannulated. […] Total cells and eosinophils are determined using a Technicon Hl and cytoslides, respectively. […]
Compounds are given (30 mg/kg), intranasally, once, 30 min before OVA challenge unless noted otherwise. […] From a parallel set of animals, BAL are collected at 48 hours and the number of eosinophils are determined.

IL-5 = assay: Human primary Th2 cells, anti-CD3/anti-CD28 activated, IL-5 ELISA; format: cell-based; settings: human primary Th2 cells, anti-CD3 and anti-CD28 (Table 5)
Protocol: as §1, §2, §3, §4, §5, §6, §7

IL-4 [2] = assay: Human primary Th2 cells, anti-CD3/anti-CD28 activated, IL-4 ELISA; format: cell-based; settings: human primary Th2 cells, anti-CD3 and anti-CD28 (Table 5)
Protocol: as §1, §2, §3, §4, §5, §6, §7

Human Th2 cells = assay: Human primary Th2 cells, proliferation (viability, MTS assay); format: cell-based; settings: human primary Th2 cells, anti-CD3 and anti-CD28 (Table 5); read-out: Prolif. IC50
Protocol: as §1, §2, §3, §4, §5, §6, §7

Swiss 3T3 fibroblasts = assay: In vitro cytotoxicity assay on contact inhibited 3T3 fibroblasts (MTS); settings: for % control (viability of quiescent 3T3 cells): 2 day incubation
Protocol: A third assay utilized in the present invention involves an in vitro cytotoxicity assay. This assay is used to further characterize the compounds in order to assess toxic activities of compounds on contact inhibited, non-dividing 3T3 fibroblasts. Other toxicity assays may be used.
Contact inhibited Swiss 3T3 fibroblasts are purchased from ATCC. The cells are maintained in 1640 RPMI supplemented with 10% fetal bovine serum (Gibco).
On day of assay, cells are detached from flasks by trypsinization, washed in medium and counted. 100 microliters of 2.5 x 10^4 cells per well are plated into Falcon brand 96 well tissue culture plates and cells incubated at 37°C in presence of 5% CO2 for 2 days or until confluent.
[…] All compound dilutions are assayed in triplicate. […] Cells are returned to the incubator for 2 days.
After 2 day incubation, the 3T3 cells are assayed for viability using an MTS Assay Kit (Promega). Media is added to blank wells for background calculations. After 2 hours incubation in kit reagent, the optical density at 490 nm for each compound and control is determined by plate reader.
Results are expressed as percent cytotoxicity, i.e., (mean OD of compound wells - background OD)/ (mean OD of controls - background).
Note that starting concentration of CsA was 1 µM. […]

Compound | IC50 (IFN-γ) [µM] | IC50 (IL-13) [µM] | IL-4 % ctl At 24hours (IL-4 [1]; i.n., 10 mg/kg) [% ctl] | IL-4 % ctl At 24hours (IL-4 [1]; i.n., 12 mg/kg) [% ctl] | IL-4 % ctl At 24hours (IL-4 [1]; i.n., 30 mg/kg, once, 30 min before OVA challenge) [% ctl] | IL-4 % ctl At 24hours (IL-4 [1]; i.p., 30 mg/kg) [% ctl] | Eos % ctl At 72hours (eosinophils; 10 mg/kg) [% ctl] | Eos % ctl At 72hours (eosinophils; 30 mg/kg) [% ctl] | IC50 (IL-5) [µM] | IC50 (IL-4 [2]) [µM] | IC50 (Human Th2 cells) [µM] | % control (viability of quiescent 3T3 cells) (Swiss 3T3 fibroblasts; 0.001 µM) [% control] | % control (viability of quiescent 3T3 cells) (Swiss 3T3 fibroblasts; 0.003 µM) [% control] | % control (viability of quiescent 3T3 cells) (Swiss 3T3 fibroblasts; 0.01 µM) [% control] | % control (viability of quiescent 3T3 cells) (Swiss 3T3 fibroblasts; 0.03 µM) [% control] | % control (viability of quiescent 3T3 cells) (Swiss 3T3 fibroblasts; 0.1 µM) [% control] | % control (viability of quiescent 3T3 cells) (Swiss 3T3 fibroblasts; 3 µM) [% control] | % control (viability of quiescent 3T3 cells) (Swiss 3T3 fibroblasts; 10 µM) [% control] | toxic effects on the viability of quiescent 3T3 cells (in words) (Swiss 3T3 fibroblasts; non-dividing 3T3 cells)
O=C(O)c1[nH]c2ccccc2c1Nc1ccncc1 [Example 28 (maleate salt)] | > 10 | ~10 | 57 | 50 | 34 | 43 | 53 | 28 | > 10 | 0.24 | > 10 | – | – | – | – | – | – | – | –
Cc1c2oc3c(C)ccc(C(=O)N[C@@H]4C(=O)N[C@H](C(C)C)C(=O)N5CCC[C@H]5C(=O)N(C)CC(=O)N(C)[C@@H](C(C)C)C(=O)O[C@@H]4C)c3nc-2c(C(=O)N[C@@H]2C(=O)N[C@H](C(C)C)C(=O)N3CCC[C@H]3C(=O)N(C)CC(=O)N(C)[C@@H](C(C)C)C(=O)O[C@@H]2C)c(N)c1=O [Actinomycin D] (I: T[dV]P[Sar][NMeV] / II: T[dV]P[Sar][NMeV]; ester I:1-I:C, II:1-II:C; linker I:N-II:N via Actinocin(9to1)) | – | – | – | – | – | – | – | – | – | – | – | 79.0 | 74.9 | 67.2 | 33.9 | 28.2 | 29.7 | 16.8 | effected the viability
